The values that follow are results of earlier work, collected in PubChem BioAssay AID1259409 (Chemical Carcinogenesis Research Information System (CCRIS), 2018).

The subject of this series is rodent chemically induced tumor inhibition, incidence and multiplicity. Kind of series: CCRIS tumor inhibitor studies. The settings on record: Species: RAT, Strain/Sex: F344/MALE.

Each structure is given as a SMILES string.

Take `O=P(O)(O)OC1C(OP(=O)(O)O)C(OP(=O)(O)O)C(OP(=O)(O)O)C(OP(=O)(O)O)C1OP(=O)(O)O` (stereo not given): the “tumour outcome (control, treated, inhibition, significance)” value (Carcinogen: 2,2'-DIHYDROXY-DI-N-PROPYLNITROSAMINE [621-64-7], N-ETHYL-N-HYDROXYETHYLNITROSAMINE [13147-25-6], 3,2'-DIMETHYL-4-AMINOB, Carcinogen: 2,2'-DIHYDROXY-DI-N-PROPYLNITROSAMINE [621-64-7], N-ETHYL-N-HYDROXYETHYLNITROSAMINE [13147-25-6], 3,2'-DIMETHYL-4-AMINOB, Dose [Inhibitor]: 2% IN DIET FOR 32 WK BEGINNING 1 WK POST LAST CARCINOGEN DOSE (STUDY DURATION: 32 WK), Route [Inhibitor]: ORAL, Target Tissue: Type of Lesion: LIVER: ADENOMA, Dose [Carcinogen]: 1000 MG/KG BW DHPN IP 2X/3 WK, 1500 MG/KG BW EHEN IP 2X/3 WK, 75 MG/KG BW DMAB SC 3X/3 WK;, Dose [Carcinogen]: 1000 MG/KG BW DHPN IP 2X/3 WK, 1500 MG/KG BW EHEN IP 2X/3 WK, 75 MG/KG BW DMAB SC 3X/3 WK;, Promoter: NONE) is on record as 9/14 (64%), 5/12 (42%), 34%, p<0.01; the “tumour outcome (control, treated, inhibition, significance)” value (Carcinogen: 2,2'-DIHYDROXY-DI-N-PROPYLNITROSAMINE [621-64-7], N-ETHYL-N-HYDROXYETHYLNITROSAMINE [13147-25-6], 3,2'-DIMETHYL-4-AMINOB, Carcinogen: 2,2'-DIHYDROXY-DI-N-PROPYLNITROSAMINE [621-64-7], N-ETHYL-N-HYDROXYETHYLNITROSAMINE [13147-25-6], 3,2'-DIMETHYL-4-AMINOB, Dose [Inhibitor]: 2% IN DIET FOR 32 WK BEGINNING 1 WK POST LAST CARCINOGEN DOSE (STUDY DURATION: 32 WK), Route [Inhibitor]: ORAL, Target Tissue: Type of Lesion: LIVER: CARCINOMA, Dose [Carcinogen]: 1000 MG/KG BW DHPN IP 2X/3 WK, 1500 MG/KG BW EHEN IP 2X/3 WK, 75 MG/KG BW DMAB SC 3X/3 WK;, Dose [Carcinogen]: 1000 MG/KG BW DHPN IP 2X/3 WK, 1500 MG/KG BW EHEN IP 2X/3 WK, 75 MG/KG BW DMAB SC 3X/3 WK;, Promoter: NONE) is given as 6/14 (43%), 1/12 (8%), 81%, not significant; the “tumour outcome (control, treated, inhibition, significance)” value (Carcinogen: 2,2'-DIHYDROXY-DI-N-PROPYLNITROSAMINE [621-64-7], N-ETHYL-N-HYDROXYETHYLNITROSAMINE [13147-25-6], 3,2'-DIMETHYL-4-AMINOB, Carcinogen: 2,2'-DIHYDROXY-DI-N-PROPYLNITROSAMINE [621-64-7], N-ETHYL-N-HYDROXYETHYLNITROSAMINE [13147-25-6], 3,2'-DIMETHYL-4-AMINOB, Dose [Inhibitor]: 2% IN DIET FOR 32 WK BEGINNING 1 WK POST LAST CARCINOGEN DOSE (STUDY DURATION: 32 WK), Route [Inhibitor]: ORAL, Target Tissue: Type of Lesion: LUNG: ADENOMA, Dose [Carcinogen]: 1000 MG/KG BW DHPN IP 2X/3 WK, 1500 MG/KG BW EHEN IP 2X/3 WK, 75 MG/KG BW DMAB SC 3X/3 WK;, Dose [Carcinogen]: 1000 MG/KG BW DHPN IP 2X/3 WK, 1500 MG/KG BW EHEN IP 2X/3 WK, 75 MG/KG BW DMAB SC 3X/3 WK;, Promoter: NONE) is 7/14 (50%), 9/12 (75%), -50%, not significant; the “tumour outcome (control, treated, inhibition, significance)” value (Carcinogen: 2,2'-DIHYDROXY-DI-N-PROPYLNITROSAMINE [621-64-7], N-ETHYL-N-HYDROXYETHYLNITROSAMINE [13147-25-6], 3,2'-DIMETHYL-4-AMINOB, Carcinogen: 2,2'-DIHYDROXY-DI-N-PROPYLNITROSAMINE [621-64-7], N-ETHYL-N-HYDROXYETHYLNITROSAMINE [13147-25-6], 3,2'-DIMETHYL-4-AMINOB, Dose [Inhibitor]: 2% IN DIET FOR 32 WK BEGINNING 1 WK POST LAST CARCINOGEN DOSE (STUDY DURATION: 32 WK), Route [Inhibitor]: ORAL, Target Tissue: Type of Lesion: URINARY BLADDER: CARCINOMA, Dose [Carcinogen]: 1000 MG/KG BW DHPN IP 2X/3 WK, 1500 MG/KG BW EHEN IP 2X/3 WK, 75 MG/KG BW DMAB SC 3X/3 WK;, Dose [Carcinogen]: 1000 MG/KG BW DHPN IP 2X/3 WK, 1500 MG/KG BW EHEN IP 2X/3 WK, 75 MG/KG BW DMAB SC 3X/3 WK;, Promoter: NONE) is on record as 1/14 (7%), 4/12 (33%), -371%, not significant; the “tumour outcome (control, treated, inhibition, significance)” value (Carcinogen: 2,2'-DIHYDROXY-DI-N-PROPYLNITROSAMINE, 53609-64-6, N-ETHYL-N-HYDROXYETHYL- NITROSAMINE, 13147-25-6, 3,2'-DIMETHYL-4-, Carcinogen: 2,2'-DIHYDROXY-DI-N-PROPYLNITROSAMINE, 53609-64-6, N-ETHYL-N-HYDROXYETHYL- NITROSAMINE, 13147-25-6, 3,2'-DIMETHYL-4-, Dose [Inhibitor]: 0, 2% IN DIET BEGINNING 1 WK POST LAST CARCINOGEN DOSE AND CONTINUING FOR 32 WK (STUDY DURATION: 36 WK), Route [Inhibitor]: 0RAL, Target Tissue: Type of Lesion: URINARY BLADDER: CARCINOMA, Dose [Carcinogen]: 1000 MG/KG IP DHPN 2X, 1500 MG/KG GAV EHEN 2X AND 75 MG/KG SC DMAB 3X GIVEN OVER THE INITIAL 3 WK PERIOD AT 3-4 D INTERV, Promoter: NONE USED) is 1/14 (7%), 2/12 (17%), -143%, not calculated; the “tumour outcome (control, treated, inhibition, significance)” value (Carcinogen: 2,2'-DIHYDROXY-DI-N-PROPYLNITROSAMINE, 53609-64-6, N-ETHYL-N-HYDROXYETHYL- NITROSAMINE, 13147-25-6, 3,2'-DIMETHYL-4-, Carcinogen: 2,2'-DIHYDROXY-DI-N-PROPYLNITROSAMINE, 53609-64-6, N-ETHYL-N-HYDROXYETHYL- NITROSAMINE, 13147-25-6, 3,2'-DIMETHYL-4-, Dose [Inhibitor]: 0, 2% IN DIET BEGINNING 1 WK POST LAST CARCINOGEN DOSE AND CONTINUING FOR 32 WK (STUDY DURATION: 36 WK), Route [Inhibitor]: ORAL, Target Tissue: Type of Lesion: LARGE INTESTINE: ADENOMA, Dose [Carcinogen]: 1000 MG/KG/ IP DHPN 2X, 1500 MG/KG GAV EHEN 2X AND 75 MG/KG SC DMAB 3X GIVEN OVER THE INITIAL 3 WK AT 3-4 D INTERVALS, Promoter: NONE USED) is on record as 7/14 (50%), 5/12 (42%), 16%, not calculated. The “tumour outcome (control, treated, inhibition, significance)” value is 3/14 (21%), 4/12 (33%), -57%, not calculated (Carcinogen: 2,2'-DIHYDROXY-DI-N-PROPYLNITROSAMINE, 53609-64-6, N-ETHYL-N-HYDROXYETHYL- NITROSAMINE, 13147-25-6, 3,2'-DIMETHYL-4-, Carcinogen: 2,2'-DIHYDROXY-DI-N-PROPYLNITROSAMINE, 53609-64-6, N-ETHYL-N-HYDROXYETHYL- NITROSAMINE, 13147-25-6, 3,2'-DIMETHYL-4-, Dose [Inhibitor]: 0, 2% IN DIET BEGINNING 1 WK POST LAST CARCINOGEN DOSE AND CONTINUING FOR 32 WK (STUDY DURATION: 36 WK), Route [Inhibitor]: ORAL, Target Tissue: Type of Lesion: LARGE INTESTINE: CARCINOMA, Dose [Carcinogen]: 1000 MG/KG IP DHPN 2X, 1500 MG/KG GAV EHEN 2X AND 75 MG/KG SC DMAB 3X GIVEN OVER THE INITIAL 3 WK PERIOD AT 3-4 D INTERV, Promoter: NONE USED); 6/14 (43%), 1/12 (8%), 81%, not calculated (Carcinogen: 2,2'-DIHYDROXY-DI-N-PROPYLNITROSAMINE, 53609-64-6, N-ETHYL-N-HYDROXYETHYL- NITROSAMINE, 13147-25-6, 3,2'-DIMETHYL-4-, Carcinogen: 2,2'-DIHYDROXY-DI-N-PROPYLNITROSAMINE, 53609-64-6, N-ETHYL-N-HYDROXYETHYL- NITROSAMINE, 13147-25-6, 3,2'-DIMETHYL-4-, Dose [Inhibitor]: 0, 2% IN DIET BEGINNING 1 WK POST LAST CARCINOGEN DOSE AND CONTINUING FOR 32 WK (STUDY DURATION: 36 WK), Route [Inhibitor]: ORAL, Target Tissue: Type of Lesion: LIVER: HEPATOCELLULAR CARCINOMA, Dose [Carcinogen]: 1000 MG/KG IP DHPN 2X, 1500 MG/KG GAV EHEN 2X AND 75 MG/KG SC DMAB 3X GIVEN OVER THE INITIAL 3 WK AT 3-4 D INTERVALS, Promoter: NONE USED); 7/14 (50%), 9/12 (75%), -50%, not calculated (Carcinogen: 2,2'-DIHYDROXY-DI-N-PROPYLNITROSAMINE, 53609-64-6, N-ETHYL-N-HYDROXYETHYL- NITROSAMINE, 13147-25-6, 3,2'-DIMETHYL-4-, Carcinogen: 2,2'-DIHYDROXY-DI-N-PROPYLNITROSAMINE, 53609-64-6, N-ETHYL-N-HYDROXYETHYL- NITROSAMINE, 13147-25-6, 3,2'-DIMETHYL-4-, Dose [Inhibitor]: 0, 2% IN DIET BEGINNING 1 WK POST LAST CARCINOGEN DOSE AND CONTINUING FOR 32 WK (STUDY DURATION: 36 WK), Route [Inhibitor]: ORAL, Target Tissue: Type of Lesion: LUNG: ADENOMA, Dose [Carcinogen]: 1000 MG/KG IP DHPN 2X, 1500 MG/KG GAV EHEN 2X AND 75 MG/KG SC DMAB 3X GIVEN OVER THE INITIAL 3 WK PERIOD AT 3-4 D INTERV, Promoter: NONE USED). Also, the outcome (Carcinogen: 2,2'-DIHYDROXY-DI-N-PROPYLNITROSAMINE [621-64-7], N-ETHYL-N-HYDROXYETHYLNITROSAMINE [13147-25-6], 3,2'-DIMETHYL-4-AMINOB, Carcinogen: 2,2'-DIHYDROXY-DI-N-PROPYLNITROSAMINE [621-64-7], N-ETHYL-N-HYDROXYETHYLNITROSAMINE [13147-25-6], 3,2'-DIMETHYL-4-AMINOB, Dose [Inhibitor]: 2% IN DIET FOR 32 WK BEGINNING 1 WK POST LAST CARCINOGEN DOSE (STUDY DURATION: 32 WK), Route [Inhibitor]: ORAL, Target Tissue: Type of Lesion: URINARY BLADDER: PAPILLOMA, Dose [Carcinogen]: 1000 MG/KG BW DHPN IP 2X/3 WK, 1500 MG/KG BW EHEN IP 2X/3 WK, 75 MG/KG BW DMAB SC 3X/3 WK;, Dose [Carcinogen]: 1000 MG/KG BW DHPN IP 2X/3 WK, 1500 MG/KG BW EHEN IP 2X/3 WK, 75 MG/KG BW DMAB SC 3X/3 WK;, Promoter: NONE) is on record as 0/14 (0%), 6/12 (50%), -100%, p<0.01.
